pIC50, pKi: −log10 of the molar value. Active and inactive are the calls of the source. The rule behind the calls is not given here.
Tests used:
Acetylcholinesterase [1] = target: T1, Acetylcholinesterase (Homo sapiens, UniProt P22303); test: Inhibition of recombinant human AChE expressed in HEK293 cells using acetylthiocholine as substrate pretreated for 20 mins followed by substrate addition by Ellman's method; type: cell-based
Cholinesterase = Cholinesterase (Homo sapiens, UniProt P06276); test: Inhibition of recombinant human serum BChE using butyrylthiocholine as substrate pretreated for 20 mins followed by substrate addition by Ellman's method
in vitro [2] = conditions: human, HepG2 cells
Description: Cytotoxicity against human HepG2 cells assessed as cell viability at 300 uM after 24 hrs by CellTiter-Glo luminescence assay relative to control

in vitro [3] = conditions: human, HepG2 cells; remark: listed apart in the source
Description: Cytotoxicity against human HepG2 cells assessed as cell viability at 10 uM after 24 hrs by CellTiter-Glo luminescence assay relative to control

in vitro [4] = conditions: human, HepG2 cells; remark: listed apart in the source
Description: Cytotoxicity against human HepG2 cells assessed as cell viability at 100 uM after 24 hrs by CellTiter-Glo luminescence assay relative to control

Acetylcholinesterase [5] = target: T1, Acetylcholinesterase; test: Non-competitive inhibition of recombinant human AChE expressed in HEK293 cells using varying levels of acetylthiocholine as substrate by Lineweaver-burk double reciprocal plot analysis; type: cell-based
Acetylcholinesterase [6] = target: T1, Acetylcholinesterase; test: Non-competitive inhibition of recombinant human AChE expressed in HEK293 cells assessed as enzyme-substrate-inhibitor complex using varying levels of acetylthiocholine as substrate by Dixon plot analysis
[7] = target: Amyloid-beta precursor protein (Homo sapiens) (UniProt P05067); test: Inhibition of HFIP-pretreated amyloid beta (1 to 42 residues) (unknown origin) self aggregation at 50 uM after 24 hrs by ThT-based fluorometric method relative to control
Acetylcholinesterase [8] = target: T1, Acetylcholinesterase; test: Potency index, ratio of tacrine IC50 to test compound IC50 for recombinant human AChE expressed in HEK293 cells; type: cell-based

Chain of Cholinesterase (P06276 whole entry): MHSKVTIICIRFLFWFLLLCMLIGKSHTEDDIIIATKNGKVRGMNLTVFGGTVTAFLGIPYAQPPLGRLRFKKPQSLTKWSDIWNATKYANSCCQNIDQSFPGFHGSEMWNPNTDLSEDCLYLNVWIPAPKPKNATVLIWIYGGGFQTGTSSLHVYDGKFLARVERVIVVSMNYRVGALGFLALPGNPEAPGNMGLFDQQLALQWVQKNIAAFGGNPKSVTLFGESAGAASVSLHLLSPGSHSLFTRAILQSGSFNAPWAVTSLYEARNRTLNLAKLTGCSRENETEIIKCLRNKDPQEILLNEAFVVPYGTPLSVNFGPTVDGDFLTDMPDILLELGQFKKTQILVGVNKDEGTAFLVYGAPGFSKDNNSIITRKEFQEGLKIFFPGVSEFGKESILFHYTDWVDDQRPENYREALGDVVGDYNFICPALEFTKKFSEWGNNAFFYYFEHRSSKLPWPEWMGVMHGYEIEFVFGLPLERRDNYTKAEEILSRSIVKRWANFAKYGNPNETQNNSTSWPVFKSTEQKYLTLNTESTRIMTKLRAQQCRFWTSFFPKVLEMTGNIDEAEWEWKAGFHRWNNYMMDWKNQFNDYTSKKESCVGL
T1 sequence (P22303 whole entry): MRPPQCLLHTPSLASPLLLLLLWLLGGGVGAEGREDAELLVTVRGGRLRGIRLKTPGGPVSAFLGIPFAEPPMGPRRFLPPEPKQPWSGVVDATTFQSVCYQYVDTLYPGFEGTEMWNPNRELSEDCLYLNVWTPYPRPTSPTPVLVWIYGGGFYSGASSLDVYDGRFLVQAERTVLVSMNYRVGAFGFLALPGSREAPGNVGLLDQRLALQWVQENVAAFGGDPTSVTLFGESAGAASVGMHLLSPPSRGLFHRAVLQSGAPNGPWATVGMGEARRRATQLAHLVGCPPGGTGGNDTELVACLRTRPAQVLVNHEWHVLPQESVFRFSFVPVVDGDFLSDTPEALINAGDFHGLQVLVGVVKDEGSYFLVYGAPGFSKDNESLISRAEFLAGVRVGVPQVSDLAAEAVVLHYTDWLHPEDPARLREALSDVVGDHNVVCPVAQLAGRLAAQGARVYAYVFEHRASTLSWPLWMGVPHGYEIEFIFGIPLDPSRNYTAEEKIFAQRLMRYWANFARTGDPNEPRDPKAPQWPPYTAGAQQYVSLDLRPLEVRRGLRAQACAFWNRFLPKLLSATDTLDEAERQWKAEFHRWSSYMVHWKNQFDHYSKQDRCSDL
Chain of Amyloid-beta precursor protein (Homo sapiens) (P05067 whole entry, the tested form may be a part): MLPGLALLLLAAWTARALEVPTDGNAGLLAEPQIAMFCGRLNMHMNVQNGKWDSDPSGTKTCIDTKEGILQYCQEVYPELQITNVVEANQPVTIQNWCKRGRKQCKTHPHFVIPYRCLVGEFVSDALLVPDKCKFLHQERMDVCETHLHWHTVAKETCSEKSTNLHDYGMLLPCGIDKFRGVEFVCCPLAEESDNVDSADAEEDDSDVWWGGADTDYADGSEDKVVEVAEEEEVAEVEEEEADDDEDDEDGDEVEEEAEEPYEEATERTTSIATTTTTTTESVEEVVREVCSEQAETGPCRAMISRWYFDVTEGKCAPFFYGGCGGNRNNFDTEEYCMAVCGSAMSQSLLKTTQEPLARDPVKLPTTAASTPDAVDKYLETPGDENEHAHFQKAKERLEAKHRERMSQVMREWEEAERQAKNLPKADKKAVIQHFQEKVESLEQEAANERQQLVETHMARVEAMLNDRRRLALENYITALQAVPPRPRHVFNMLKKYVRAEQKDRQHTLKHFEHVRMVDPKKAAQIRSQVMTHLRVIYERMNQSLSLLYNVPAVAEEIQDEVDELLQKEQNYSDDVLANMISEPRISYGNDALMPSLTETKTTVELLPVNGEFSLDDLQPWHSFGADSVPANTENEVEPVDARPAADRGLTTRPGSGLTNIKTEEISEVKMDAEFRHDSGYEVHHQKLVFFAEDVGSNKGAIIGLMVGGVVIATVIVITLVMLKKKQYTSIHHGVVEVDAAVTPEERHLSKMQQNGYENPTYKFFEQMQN

In the case of `COc1ccc(C2NC(=S)Nc3nc4c(c(N)c32)CCCC4)cc1` (stereo not drawn), the pIC50 (Acetylcholinesterase [1]) was 5.12, the pIC50 (Cholinesterase) was 5.76 and the viability at 24 h, 300 µM (in vitro [2]) was 77.6%. It also gave a viability at 24 h, 10 µM (in vitro [3]) of 97.9% and a viability at 24 h, 100 µM (in vitro [4]) of 100%.
For `CN(C)c1ccc(C2NC(=S)Nc3nc4c(c(N)c32)CCCC4)cc1` (stereo not drawn), the pIC50 (Acetylcholinesterase [1]) was 4.62, the pIC50 (Cholinesterase) was 3.81 and the viability at 24 h, 300 µM (in vitro [2]) was 78.9%. The viability at 24 h, 10 µM (in vitro [3]) was 87.3% and the viability at 24 h, 100 µM (in vitro [4]) was 82.5%.
With `Nc1c2c(nc3c1C(c1cccc(Br)c1)NC(=S)N3)CCCC2` (stereo not drawn) the pIC50 (Acetylcholinesterase [1]) was 7.43, the pIC50 (Cholinesterase) was 5.90 and the inhibition (Acetylcholinesterase [5]) was “Active”. It also gave a pKi (Acetylcholinesterase [6]) of 6.83, an inhibition [7] of 10% and a Ratio IC50 (Acetylcholinesterase [8]) of 9.4 to 10. It also gave a viability at 24 h, 300 µM (in vitro [2]) of 62.3%, a viability at 24 h, 10 µM (in vitro [3]) of 103% and a viability at 24 h, 100 µM (in vitro [4]) of 76.8%.
`Nc1c2c(nc3c1C(c1ccccc1)NC(=S)N3)CCCC2` (stereo not drawn) gave a pIC50 (Acetylcholinesterase [1]) of 4.97, a pIC50 (Cholinesterase) of 5.25 and a viability at 24 h, 300 µM (in vitro [2]) of 68.2%. For the same compound, the viability at 24 h, 10 µM (in vitro [3]) was 105% and the viability at 24 h, 100 µM (in vitro [4]) was 97.2%.
Work on `Nc1c2c(nc3c1C(c1cccc([N+](=O)[O-])c1)NC(=S)N3)CCCC2` (stereo not drawn) yielded a pIC50 (Acetylcholinesterase [1]) of 4.53, a pIC50 (Cholinesterase) of 5.57 and a viability at 24 h, 300 µM (in vitro [2]) of 82.7%. For the same compound, the viability at 24 h, 10 µM (in vitro [3]) was 102% and the viability at 24 h, 100 µM (in vitro [4]) was 96.5%.
With `COc1cccc(C2NC(=S)Nc3nc4c(c(N)c32)CCCC4)c1` (stereo not drawn) the pIC50 (Acetylcholinesterase [1]) was 5.52, the pIC50 (Cholinesterase) was 5.50 and the inhibition (Acetylcholinesterase [5]) was “Active”. For the same compound, the pKi (Acetylcholinesterase [6]) was 5.41, the inhibition [7] was 10% and the viability at 24 h, 300 µM (in vitro [2]) was 97.5%. The viability at 24 h, 10 µM (in vitro [3]) was 100% and the viability at 24 h, 100 µM (in vitro [4]) was 102%.
Compound `Cc1ccc(C2NC(=S)Nc3nc4c(c(N)c32)CCCC4)cc1` (stereo not drawn) has a pIC50 (Acetylcholinesterase [1]) of 4.62, a pIC50 (Cholinesterase) of 5.46 and a viability at 24 h, 300 µM (in vitro [2]) of 45.2%. It also gave a viability at 24 h, 10 µM (in vitro [3]) of 90.6% and a viability at 24 h, 100 µM (in vitro [4]) of 62%.
Compound `COc1ccccc1C1NC(=S)Nc2nc3c(c(N)c21)CCCC3` (stereo not drawn) has a pIC50 (Acetylcholinesterase [1]) of 4.51, a pIC50 (Cholinesterase) of 4.93 and a viability at 24 h, 300 µM (in vitro [2]) of 68.1%. For the same compound, the viability at 24 h, 10 µM (in vitro [3]) was 98.1% and the viability at 24 h, 100 µM (in vitro [4]) was 81.1%.
In the case of `Nc1c2c(nc3c1C(c1ccc(F)cc1)NC(=S)N3)CCCC2` (stereo not drawn), the pIC50 (Acetylcholinesterase [1]) was 4.51, the pIC50 (Cholinesterase) was 5.00 and the viability at 24 h, 300 µM (in vitro [2]) was 72.5%. For the same compound, the viability at 24 h, 10 µM (in vitro [3]) was 104% and the viability at 24 h, 100 µM (in vitro [4]) was 79.1%.
With `Nc1c2c(nc3c1C(c1ccc4c(c1)OCO4)NC(=S)N3)CCCC2` (stereo not drawn) the pIC50 (Acetylcholinesterase [1]) was 5.09, the pIC50 (Cholinesterase) was 4.43 and the viability at 24 h, 300 µM (in vitro [2]) was 64.1%. For the same compound, the viability at 24 h, 10 µM (in vitro [3]) was 103% and the viability at 24 h, 100 µM (in vitro [4]) was 91.2%.
Compound `Cc1cccc(C2NC(=S)Nc3nc4c(c(N)c32)CCCC4)c1` (stereo not drawn) has a pIC50 (Acetylcholinesterase [1]) of 5.00, a pIC50 (Cholinesterase) of 5.58 and a viability at 24 h, 300 µM (in vitro [2]) of 68.1%. The viability at 24 h, 10 µM (in vitro [3]) was 97.6% and the viability at 24 h, 100 µM (in vitro [4]) was 82.5%.
In the case of `Nc1c2c(nc3c1C(c1ccc(Cl)cc1)NC(=S)N3)CCCC2` (stereo not drawn), the pIC50 (Acetylcholinesterase [1]) was 5.28, the pIC50 (Cholinesterase) was 6.43 and the inhibition [7] was 10%. The viability at 24 h, 300 µM (in vitro [2]) was 9%, the viability at 24 h, 10 µM (in vitro [3]) was 80% and the viability at 24 h, 100 µM (in vitro [4]) was 27.9%.

Source: ChEMBL document CHEMBL4152325, “Tacripyrimidines, the first tacrine-dihydropyrimidine hybrids, as multi-target-directed ligands for Alzheimer's disease” (Eur J Med Chem, 2018)
